Experimental findings from US7538111B2, “Benzenesulphonamide derivatives, method for production and use thereof for treatment of pain” (Laboratoires Fournier S.A., priority 2003, dated 2009) are described below.

Molecules are shown by their SMILES. Structures can show the parent of a compound that is named as a salt.

The test system of this assay is formalin-induced pain response (paw licking). Put plainly: formalin-induced pain response test in mice. It is filed as in vivo. As to conditions: oral route, dose 1 mg/kg, 2nd phase 15 to 30 min after formalin injection. As to the method: The compounds of the present invention were evaluated for their analgesic property using the formalin-induced pain response test in mice (Shibata, M., Ohkubo, T., Takahashi, H. & R. Inoki. Modified formalin test: characteristic biphasic pain response. Pain, 38, 347-352). To summarize, formalin (0.92% in physiological saline) is injected into the hind paw and the period of paw licking, which represents pain intensity, is recorded from 0 to 5 min (1st phase) and from 15 to 30 min (2nd phase) after the injection.

Turning to `COc1cc(C)c(S(=O)(=O)N(C)CCOCC(=O)N2CCN([C@@H]3CN4CCC3CC4)CC2)c(C)c1` [Example 6, N-[2-[2-[4-[(3S)-1-azabicyclo[2.2.2]oct-3-yl]-1-piperazinyl]-2-oxo-ethoxy]ethyl]-4-methoxy-N,2,6-trimethylbenzenesulphonamide, fumarate], the “percentage inhibition of the second paw licking phase induced by formalin” value is reported as 40%.
